From publication PMC4503722, “Novel Phenotypic Outcomes Identified for a Public Collection of Approved Drugs from a Publicly Accessible Panel of Assays” (PLoS ONE, 2015)

Assays:
[1] = system: INS-1E cells; assay: cells; assay type: cell-based, rat; settings: 5 mM glucose; for 5mMGluc_INS1E SecretionMod IC50/EC50: assay number 8;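 as to all read-outs here: secreted insulin quantified by homogeneous immunoassay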
[2] = system: endothelial tube formation in co-cultures of ECFCs and ADSCs treated with VEGF; assay: cells; assay type: cell-based, human
[3] = system: HeLa cells; assay: cells; assay type: cell-based
[4] = system: DLD-1; assay: cells; assay type: cell-based
[5] = system: SW480; assay: cells; assay type: cell-based
[6] = system: HCT116; assay: cells; assay type: cell-based
[7] = system: HCT116 cells treated with a GSK3β inhibitor; assay: cells; assay type: cell-based
[8] = system: Colo320; assay: cells; assay type: cell-based
[9] = system: HT-29; assay: cells; assay type: cell-based
[10] = system: RKO; assay: cells; assay type: cell-based
[11] = system: SNU-C1; assay: cells; assay type: cell-based
[12] = system: ECFC/ADSC co-culture cell nuclei number

In the case of CN(C)CC/C=C1\c2ccccc2Sc2ccc(Cl)cc21 [NCGC00013683-06], the “5mMGluc_INS1E SecretionMod IC50/EC50” value [1] is reported as over 33.33 µM.

With N=c1nc(N2CCCCC2)cc(N)n1O [NCGC00015673-13] the “IC50/EC50, 5mMGluc_INS1E SecretionMod (assay number 8)” value [1] was over 33.33 µM.

With CN(C)CC[C@H](c1ccc(Cl)cc1)c1ccccn1 [NCGC00015227-08] the “5mMGluc_INS1E SecretionMod IC50/EC50” value [1] was 17.749 µM.

With CCc1oc2ccccc2c1C(=O)c1cc(I)c(O)c(I)c1 [NCGC00160408-03] the “VEGF_ADSC\ECFC Angio CD31 TubeArea IC50/EC50” value [2] was 5.8547 µM, the “Hela CellCycMod PI 2N IC50/EC50” value [3] was over 10 µM and the “Hela CellCycMod PI 4N IC50/EC50” value [3] was over 10 µM. For the same compound, the “Hela CellCycMod PI Cell Number IC50/EC50” value [3] was over 10 µM, the “Hela CellCycMod PI MI IC50/EC50” value [3] was over 10 µM and the “Hela CellCycMod PI S Phase IC50/EC50” value [3] was over 10 µM. For the same compound, the “Basal_Viability ATP DLD-1 IC50/EC50” value [4] was 0.003 µM, the “Basal_Viability ATP SW480 IC50/EC50” value [5] was 0.001 µM and the “Basal_Viability ATP HCT116 IC50/EC50” value [6] was 0.003 µM. For the same compound, the “GSK3b inh pretreated_Viability ATP HCT116 IC50/EC50” value [7] was 0.001 µM, the “Basal_Viability ATP Colo 320 IC50/EC50” value [8] was 0.003 µM and the “Basal_Viability ATP HT-29 IC50/EC50” value [9] was 0.001 µM. For the same compound, the “Basal_Viability ATP RKO IC50/EC50” value [10] was 0.003 µM, the “Basal_Viability ATP SNU-C1 IC50/EC50” value [11] was 0.001 µM and the “VEGF_ADSC\ECFC Angio Hoechst NucArea IC50/EC50” value [12] was over 10 µM.

Cc1ccc(-n2nc(C(C)(C)C)cc2NC(=O)Nc2ccc(OCCN3CCOCC3)c3ccccc23)cc1 [NCGC00241104-02] was tested, and the “5mMGluc_INS1E SecretionMod IC50/EC50” value [1] was over 33.33 µM.

For COc1ccc(CN(CCN(C)C)c2ccccn2)cc1 [NCGC00015822-15], the “IC50/EC50, 5mMGluc_INS1E SecretionMod (assay number 8)” value [1] was 15.3614 µM.

CCCCOc1cc(C(=O)OCCN(CC)CC)ccc1N [NCGC00016667-04] was tested, and the “5mMGluc_INS1E SecretionMod IC50/EC50” value [1] was 15.5055 µM.

CCC(CN)=C(c1ccccc1)c1ccccc1.Cl [NCGC00262942-01] was tested, and the “5mMGluc_INS1E SecretionMod IC50/EC50” value [1] was 10.7785 µM.

In the case of CCN(CC)CCOc1ccc(Cc2ccccc2)cc1 [NCGC00024762-04], the “5mMGluc_INS1E SecretionMod IC50/EC50” value [1] is reported as over 33.33 µM.
